# In patent US12403147B2, “Treatment of ocular inflammation following ocular surgery” (Oculis Operations Sàrl, priority 2019, dated 2025):
# Key:
# [1] = 25° C.; cited from earlier work
# [2] = Description: For facilitating the interpretation of obtained results, the stress conditions of described studies should be converted to the condition of the currently running long term stability program for an eye drop formulation. For this purpose, the values of pH drop for stock formulations stored in glass containers from the study were compared with pH drop profile for a clinical batch stored at 25° C. in LDPE plastic containers without antioxidant (STS).
storage time during which the antioxidant can stabilize the formulation [2],Molecule,solubility in pure water [1]
,OC[C@H]1O[C@@H]2O[C@H]3[C@H](O)[C@@H](O)[C@@H](O[C@H]4[C@H](O)[C@@H](O)[C@@H](O[C@H]5[C@H](O)[C@@H](O)[C@@H](O[C@H]6[C@H](O)[C@@H](O)[C@@H](O[C@H]7[C@H](O)[C@@H](O)[C@@H](O[C@H]1[C@H](O)[C@H]2O)O[C@@H]7CO)O[C@@H]6CO)O[C@@H]5CO)O[C@@H]4CO)O[C@@H]3CO [α-cyclodextrin],129.5 ± 0.7 mg/mL
,OC[C@H]1O[C@@H]2O[C@H]3[C@H](O)[C@@H](O)[C@@H](O[C@H]4[C@H](O)[C@@H](O)[C@@H](O[C@H]5[C@H](O)[C@@H](O)[C@@H](O[C@H]6[C@H](O)[C@@H](O)[C@@H](O[C@H]7[C@H](O)[C@@H](O)[C@@H](O[C@H]8[C@H](O)[C@@H](O)[C@@H](O[C@H]9[C@H](O)[C@@H](O)[C@@H](O[C@H]1[C@H](O)[C@H]2O)O[C@@H]9CO)O[C@@H]8CO)O[C@@H]7CO)O[C@@H]6CO)O[C@@H]5CO)O[C@@H]4CO)O[C@@H]3CO [γ-cyclodextrin],249.2 ± 0.2 mg/mL
at least 1 year,DL-Tartaric acid,
